This passage reports EC50 results from PubChem BioAssay AID435004 (Broad Institute, 2010).

pEC50: −log10 of the molar value. Records with an inconclusive call do not appear. Active and inactive are the calls of the source.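 How the source made its calls: active means EC50 at most a set number of log units above the top tested dose; inconclusive means flat curve fit with activity between 30% and 70%, or poor fit; inactive means EC50 further above the top dose than that.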

The test system of the test is NIH3T3-HGL HSF1 luciferase reporter, MG132, 8 h. Description: enhancement of HSF1-driven luciferase signal – cell-based, NIH3T3, luminescence, dose retest, confirmation (AID 435004).
As for `C#CCOCCOCCOCCNc1nc(N2CCN(C(=O)[C@H](Cc3cc4ccccc4[nH]3)n3cc(C(N)CC(C)C)nn3)CC2)nc(N2CCN(C(=O)[C@H](CCC(=O)O)n3cc(C(N)[C@H](C)CC)nn3)CC2)n1` (stereo partly drawn), the EC50 was > 26 µM (inactive).

Regarding `CC(C)CCN=CC1=C(O)CC(c2ccccc2)CC1=O` (stereo not drawn), the EC50 is > 26 µM (inactive). As to `O=C1CC(c2ccccc2Cl)CC(O)=C1C=Nc1ccccc1` (stereo not drawn), the pEC50 was 5.33.

As usually defined, the EC50 is the concentration needed to bring the measured effect to its halfway point. By pEC50 is commonly meant −log10 of the EC50, conventionally taken in molar units.
